Reference: PMC10906223 (JCI Insight, 2024)
pIC50, pKi: −log10 of the molar value. Where “and” joins values, the source holds several entries; their conditions need not be identical. Equal entries are not always repeated. Where two headings read alike, the source gives them in different places.

How the values were obtained:
[1] = target: T1, EphA4 receptor (Mus musculus, UniProt Q03137); experiment: ELISA: binding affinity (Ki) of WCDD301 for EphA4 via bound Ephrin-A5 Fc; design: Bound Ephrin (0.1 µM-WCDD301) / Bound Ephrin, raw data: unit not given here; conditions: for Bound Ephrin (0.1 µM-WCDD301): replicates, Figure 1B
T1 construct: purchased R&D Systems 641-A4-200
T1 sequence (Q03137 with tags, fused parts or gaps limits assumed): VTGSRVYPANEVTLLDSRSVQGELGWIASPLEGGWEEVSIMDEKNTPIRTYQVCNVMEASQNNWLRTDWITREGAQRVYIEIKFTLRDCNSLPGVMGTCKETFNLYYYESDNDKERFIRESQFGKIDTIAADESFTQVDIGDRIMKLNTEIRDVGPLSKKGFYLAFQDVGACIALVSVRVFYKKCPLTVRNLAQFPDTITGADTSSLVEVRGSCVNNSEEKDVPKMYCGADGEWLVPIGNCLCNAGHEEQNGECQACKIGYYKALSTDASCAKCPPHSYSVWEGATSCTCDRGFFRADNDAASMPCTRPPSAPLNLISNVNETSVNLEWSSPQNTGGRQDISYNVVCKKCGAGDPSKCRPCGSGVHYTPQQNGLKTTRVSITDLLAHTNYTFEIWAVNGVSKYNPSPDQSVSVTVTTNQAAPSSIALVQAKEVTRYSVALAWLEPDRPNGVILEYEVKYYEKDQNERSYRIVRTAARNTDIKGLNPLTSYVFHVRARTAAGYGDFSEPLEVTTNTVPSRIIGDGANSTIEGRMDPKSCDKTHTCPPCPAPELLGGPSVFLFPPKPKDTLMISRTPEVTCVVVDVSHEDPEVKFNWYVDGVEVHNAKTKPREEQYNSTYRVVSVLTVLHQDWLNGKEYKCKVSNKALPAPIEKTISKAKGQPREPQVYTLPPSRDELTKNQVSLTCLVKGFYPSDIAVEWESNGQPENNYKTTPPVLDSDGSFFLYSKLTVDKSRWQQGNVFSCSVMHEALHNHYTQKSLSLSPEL
Procedure: Wells of the protein A–coated microplate (Pierce, catalog 15132) were washed using 200 μL of binding buffer (PBS supplemented by 0.01% Tween 20). Recombinant mouse EphA4 Fc chimera protein (R&D Systems, catalog 641-A4-200) was reconstituted in 1× PBS (Genesee, catalog 25-507XB, pH 7.2 ± 0.1), diluted to 3 μg/mL using binding buffer, dispensed (100 μL) in each well, and rocked on a belly dancer shaker (3 hours at room temperature, RT). Following 3 washes in the binding buffer, blocking was done using blocking buffer (5% BSA in binding buffer) for 3 hours at RT. Then, after 5 washes, the reconstituted recombinant mouse Ephrin-A5 Fc (R&D Systems, catalog 7396-EA-050) was added (100 μL) into each well and rocked for 2.5 hours on the shaker (Ephrin-A5 Fc concentrations were used as described in the Results section). After 7 washes using binding buffer, alkaline phosphatase–conjugated antibody against Ephrin-A5 was diluted (1:1,000) in the binding buffer plus 2% BSA, added to each well, and incubated at 4°C, overnight. Conjugation of the anti-EFNA5 antibody (Abnova, catalog H00001946-M02; 0.5 mg/mL; target sequence 114–203) was done using Abcam conjugation kit (catalog ab102850) based on the manufacturer’s instruction. After washing 7 times, p-nitrophenyl phosphate tablet (MilliporeSigma, catalog N1891) was reconstituted in 5 mL of PBS and added to each well (100 μL). Following 1 hour shaking at RT in the dark, reaction was stopped by adding 100 μL of 3N NaOH. OD was read at 405 nm within 5 minutes using the microplate reader (Agilent BioTek Cytation 5).
As a control, Fc fragment (BioLegend, catalog 790102) was incubated and used for normalization of data. […] Then, Ki was determined via an approach called finding Ki without global fitting ([58]) by using the following formula: […]
This approach provided a Km value for […] and an estimate for its binding affinity, Ki. To further verify this finding, experiments were designed in the context of 8 nM Ephrin-A5 to determine bound levels of Ephrin-A5 in the presence of WCDD301 (0, 0.1, 0.4, 0.8, and 1.6 μM). Data were normalized and fit by nonlinear regression in GraphPad Prism software version 4 to determine IC50. Then, by using the Cheng-Prusoff equation

[2] = system: isolated islets of donors with T1D; experiment: Insulin secretion from isolated islets of donors with T1D; type: cell-based, human; conditions: for Secretion of insulin: isolated islets, T1D donors, one value per donor, Figure 2I;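 as to Secretion of insulin: insulin concentration in collected medium by Lumit immunoassay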
Procedure: The Integrated Islet Distribution Program provided us human donor islets with their characteristics (Supplemental Table 6). Islets were centrifuged at 500g for 3 minutes, resuspended in CMRL 1066 medium (Gibco, catalog 1150-037) containing 11 mM glucose, and rested in an incubator overnight.
For the hormone secretion assay, islets or dispersed islet cells were adapted in KRBH buffer containing 11 mM glucose for 1 hour. Then, after 2 washes in HBSS containing 11 mM glucose, islets or cells were treated in the following sequential order in the presence or absence of WCDD301: incubation in KRBH (1 mM glucose, 30 minutes) followed by medium collection, incubation in KRBH (11 mM glucose, 30 minutes) followed by medium collection.

[3] = system: α cells of NOD mice islets; experiment: EphA4 signal in α cells of pancreatic slices of NOD mice; type: in vivo, mouse; conditions: WCDD301-treated NOD mice; diabetic 12.64 ± 1.12, nondiabetic 18.62 ± 1.09
Procedure: Pancreata of NOD mice (females, n = 3 per group) from nondiabetic, diabetic placebo-treated, and diabetic WCDD301-treated cohorts were excised; fixed in 10% buffered formalin for 5 days; and treated with ethanol 70% for 2 days before paraffin embedding. The paraffin-embedded tissue blocks were longitudinally sectioned in 5 μm slices and fixed on microscope slides. Following deparaffinization (through incubation in graded xylene, graded ethanol, and PBS), permeabilization (using 0.1% Triton X-100 in PBS), and background blocking (using 5% BSA solution containing 0.1% Tween 20), samples were incubated with primary antibodies (mouse anti-glucagon, Abcam, catalog ab10988; above-mentioned rabbit anti-EphA4), secondary antibodies (goat anti-mouse IgG Alexa Fluor 488; Invitrogen, catalog A-11001; goat anti-rabbit IgG Alexa Fluor 633, Invitrogen, catalog A-21070), SPY555-Actin (Cytoskeleton, catalog SC202), and DAPI. Image acquisition and analysis were performed as for dispersed islet cells. […] ROIs were manually drawn around each islet, background signal was removed by thresholding, and intensity of glucagon signal was determined and normalized by the islet surface area. To determine sizes of α cells per islet, ROIs were manually drawn around α cells in each islet. […]

[4] = system: diabetic NOD mice; experiment: Plasma glucagon in NOD mice after treatment; type: in vivo, mouse; design: Plasma glucagon: unit not given beside the values
Procedure: Terminal blood was collected into microfuge tubes containing K2-EDTA (supplemented by 45 mM phenylmethylsulphonyl fluoride and 0.77 μM aprotinin) through cardiac puncture. Plasma was separated by centrifugation (2,000g for 10 minutes at 4°C) and kept at –80°C until analysis. Plasma samples with hemolysis were excluded from the study. […] Values of BUN, creatinine, ALB, ALT, and AST were determined by a Roche Cobas C501 Autoanalyzer as performed by the Washington University Diabetes Research Center Translational Diagnostics Core. Reference intervals of blood chemistry parameters for inbred NOD mice were extracted from the Mouse Phenome Database (https://phenome.jax.org/).

[5] = WCDD301 0.1 µM, 8 nM Ephrin-A5, Figure 1C

**Q.** `CC(=O)OCC(N)(COC(C)=O)COC(C)=O` [WCDD301, 2-(acetoxymethyl)-2-aminopropane-1,3-diyl diacetate] was tested. Which pKi ([1]; 8 nM Ephrin-A5, Figure 1C, read-out: Ki via Cheng-Prusoff equation) did it give?
**A.** The pKi was 6.89.

**Q.** What about the pIC50 ([1]; 8 nM Ephrin-A5, WCDD301 0-1.6 μM, Figure 1C) of the same compound?
**A.** Its pIC50 is 6.68.

**Q.** And the “Bound Ephrin (0.1 µM-WCDD301)” value ([1]; EFN 2 nM)?
**A.** The value was 0.08 and 0.079 and 0.05.

**Q.** And the “Bound Ephrin (0.1 µM-WCDD301)” value ([1]; EFN 4 nM)?
**A.** Its value is 0.057 and 0.077 and 0.06.

**Q.** And the “Bound Ephrin (0.1 µM-WCDD301)” value ([1]; EFN 8 nM)?
**A.** Its value is 0.119 and 0.122 and 0.09.

**Q.** What about the “Bound Ephrin (0.1 µM-WCDD301)” value ([1]; EFN 16 nM) of the same compound?
**A.** Its value is 0.141 and 0.136 and 0.1.

**Q.** What about the “Bound Ephrin (0.1 µM-WCDD301)” value ([1]; EFN 32 nM) of the same compound?
**A.** Its value is 0.235 and 0.22 and 0.2.

**Q.** And the “Bound Ephrin (0.1 µM-WCDD301)” value ([1]; EFN 64 nM)?
**A.** The value was 0.301 and 0.295 and 0.32.

**Q.** What about the pKi ([1]; ELISA with Ephrin-A5 Fc, read-out: Ki, binding affinity for EphA4 receptor) of the same compound?
**A.** Its pKi is at least 6.89.

**Q.** And the “Bound Ephrin, normalized” value [1, 5]?
**A.** The value was 51.76 and 79.12.

**Q.** What about the “Bound Ephrin, raw data” value [1, 5] of the same compound?
**A.** The value was 0.069 and 0.1.

**Q.** What about the “Bound Ephrin, raw data” value ([1]; WCDD301 0.4 µM, 8 nM Ephrin-A5, Figure 1C) of the same compound?
**A.** Its value is 0.037 and 0.06 and 0.07.

**Q.** What about the “Bound Ephrin, raw data” value ([1]; WCDD301 0.8 µM, 8 nM Ephrin-A5, Figure 1C) of the same compound?
**A.** Its value is 0.02 and 0.035 and 0.04.

**Q.** And the “Bound Ephrin, raw data” value ([1]; WCDD301 1.6 µM, 8 nM Ephrin-A5, Figure 1C)?
**A.** Its value is 0.012 and 0.009 and 0.01.

**Q.** What about the “Effect on insulin secretion” value ([2]; islets from donors with long-standing T1D) of the same compound?
**A.** Its value is “no effect on the minimal residual insulin secretion”.

**Q.** What about the Secretion of insulin ([2]; 1 mM glucose) of the same compound?
**A.** Its Secretion of insulin is 0.055 and 0.09.

**Q.** What about the Secretion of insulin ([2]; 11 mM glucose) of the same compound?
**A.** Its Secretion of insulin is 0.07 and 0.06.

**Q.** What about the “EphA4 signal within α cells” value [3] of the same compound?
**A.** The value was 21.84 ± 1.14 AU.

**Q.** What about the Plasma glucagon ([4]; WCDD301-treated diabetic NOD mice, per mouse, Figure 6B) of the same compound?
**A.** Its Plasma glucagon is 22.15 and 11 and 44 and 25 and 47.

**Q.** What about the “Effect on plasma glucagon” value ([4]; diabetic NOD mice) of the same compound?
**A.** Its value is “suppression of glucagon levels”.
